Source: ChEMBL document CHEMBL1148864, “Design of LFA-1 antagonists based on a 2,3-dihydro-1H-pyrrolizin-5(7aH)-one scaffold” (Bioorg Med Chem Lett, 2007)

Tests used:
Homo sapiens [1] = species: Homo sapiens; settings: 10 uM
Homo sapiens [2] = species: Homo sapiens; settings: 1 uM

| SMILES | inhibition (Homo sapiens [1]) [%] | inhibition (Homo sapiens [2]) [%] |
| --- | --- | --- |
| O=C1C(c2cc(Cl)cc(Cl)c2)=C(c2cc[nH]n2)[C@]2(Cc3ccc(Br)cc3)CCCN12 | 30 | – |
| N#Cc1ccc(C[C@@]23CCCN2C(=O)C(c2cc(Cl)cc(Cl)c2)=C3O)cc1 | – | 27 |
